{"source": "paper PMC11675283", "about": "“Anticholinesterase Activity and Bioactive Compound Profiling of Six Hop (Humulus lupulus L.) Varieties” (Foods, 2024)", "target": "T1, tyrosinase from mushrooms", "T1 construct": "gene PPO3; commercial native mushroom tyrosinase (Sigma-Aldrich), isoenzyme mixture", "experiment": "colorimetric diphenolase assay, absorbance at […] nm", "assay_type": "biochemical", "settings": "L-DOPA substrate", "data": [{"smiles": "O=C(O)CCCCCCCC(=O)O", "note": "[azelaic acid]", "values": [{"measurement": "IC50", "result": 1.47, "unit": "mg/mL"}]}]}
